Columns and labels:
Conditions in all cases: CFU after 24 h, 0.07% (w/v) polysaccharide, 30 ppm copper, Table 3(b)
C. albicans = system: C. albicans
A. baumannii = system: A. baumannii
P. aeruginosa = system: P. aeruginosa
E. coli = system: E. coli
S. aureus = system: S. aureus
B. subtilis = system: B. subtilis

| Structure (SMILES) | Cell Viability [%] (C. albicans) | Cell Viability [%] (A. baumannii) | Cell Viability [%] (P. aeruginosa) | Cell Viability [%] (E. coli) | Cell Viability [%] (S. aureus) | Cell Viability [%] (B. subtilis) |
| --- | --- | --- | --- | --- | --- | --- |
| [Cl][Cu][Cl] [CuCl2] | 71.0 ± 1.0 | 81.5 ± 7.4 | 82.6 ± 6.8 | 81.3 ± 5.6 | 81.6 ± 4.5 | 82.0 ± 1.0 |
| [Cl][Cu] [CuCl, cuprous chloride] | 90.3 ± 0.6 | 37.4 ± 3.5 | 38.9 ± 4.5 | – | – | 52.6 ± 5.4 |
| [O]=[Cu] [CuO] | 84.7 ± 4.0 | 87.1 ± 2.3 | 79.4 ± 8.9 | 78.1 ± 6.5 | 71.2 ± 8.9 | 72.7 ± 4.0 |

Reference: US20240382519A1, “MONOVALENT COPPER/PORPHYRIDIUM SP. POLYSACCHARIDE COMPLEXES, RELATED PRODUCTS AND METHODS OF PREPARATION THEREOF” (B.G. NEGEV TECHNOLOGIES AND APPLICATIONS LTD., AT …, priority 2021, published 2024)
